Source: US11274097B2, “2-(het)aryl-substituted condensed bicyclic heterocycle derivatives as pest control agents” (BAYER CROPSCIENCE AKTIENGESELLSCHAFT, priority 2014, dated 2022)

Experiments:
Type in all cases: in vivo
Spodoptera frugiperda = Spodoptera frugiperda spray test (SPODFR); conditions: application rate 500 g/ha; maize leaf discs; after 7 days
Experimental: Spodoptera frugiperda—Spray Test (SPODFR)
Solvent: 78.0 parts by weight of acetone • • 1.5 parts by weight of dimethylformamide
Emulsifier: alkylaryl polyglycol ether
To produce an appropriate active ingredient formulation, 1 part by weight of active ingredient is dissolved using the stated parts by weight of solvent and made up with water containing an emulsifier concentration of 1000 ppm until the desired concentration is attained. To produce further test concentrations, the preparation is diluted with emulsifier-containing water.
Leaf discs of maize (Zea mays) are sprayed with an active ingredient formulation of the desired concentration and, after drying, populated with caterpillars of the armyworm (Spodoptera frugiperda).
After 7 days, the efficacy in % is determined. 100% means that all the caterpillars have been killed; 0% means that no caterpillars have been killed.

Phaedon cochleariae = Phaedon cochleariae spray test (PHAECO); conditions: application rate 500 g/ha; larvae; after 7 days
Procedure, shortened: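 Chinese cabbage leaf discs sprayed with compound in acetone/dimethylformamide with alkylaryl polyglycol ether emulsifier in water, dried, then infested with mustard beetle larvae. Efficacy scored after 7 days as % larvae killed (100% = all dead, 0% = none).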

Boophilus microplus = Boophilus microplus injection test (BOOPMI Inj); conditions: application rate 20 μg/animal; injection into engorged adult female cattle ticks; after 7 days
Experimental: Boophilus microplus—Injection Test (BOOPMI Inj)
Solvent: dimethyl sulphoxide
To produce an appropriate active ingredient formulation, 10 mg of active ingredient are mixed with 0.5 ml of solvent and the concentrate is diluted with solvent to the desired concentration.
1 μl of the active ingredient solution is injected into the abdomen of 5 engorged adult female cattle ticks (Boophilus microplus). The animals are transferred into dishes and kept in a climate-controlled room.
Efficacy is assessed after 7 days by laying of fertile eggs. Eggs which are not visibly fertile are stored in a climate-controlled cabinet until the larvae hatch after about 42 days. An efficacy of 100% means that none of the ticks has laid any fertile eggs; 0% means that all the eggs are fertile.

Lucilia cuprina = Lucilia cuprina test (LUCICU); conditions: application rate 100 ppm; L1 larvae; after 2 days
Experimental: Lucilia cuprina Test (LUCICU) Solvent: dimethyl sulphoxide To produce an appropriate active ingredient formulation, 10 mg of active ingredient are mixed with 0.5 ml of dimethyl sulphoxide, and the concentrate is diluted with water to the desired concentration. About 20 L1 larvae of the Australian sheep blowfly (Lucilia cuprina) are transferred into a test vessel containing minced horsemeat and the active ingredient preparation of the desired concentration. After 2 days, the kill in % is determined. 100% means that all the larvae have been killed; 0% means that none of the larvae have been killed.

Musca domestica = Musca domestica test (MUSCDO); conditions: application rate 20 ppm; adult houseflies; after 2 days
Experimental: Musca domestica Test (MUSCDO) Solvent: dimethyl sulphoxide To produce an appropriate active ingredient formulation, 10 mg of active ingredient are mixed with 0.5 ml of dimethyl sulphoxide, and the concentrate is diluted with water to the desired concentration. Vessels containing a sponge treated with sugar solution and the active ingredient formulation of the desired concentration are populated with 10 adult houseflies (Musca domestica). After 2 days, the kill in % is determined. 100% means that all of the flies have been killed; 0% means that none of the flies have been killed.

## CCS(=O)(=O)c1cc(C(F)(F)F)cnc1-c1nc2cc(C(F)(F)F)ncc2n1C [Example I-21]
Spodoptera frugiperda
  efficacy: 100%
Phaedon cochleariae
  efficacy: 100%
Boophilus microplus
  efficacy (laying of fertile eggs): 80%
Lucilia cuprina
  efficacy (kill): 100%
Musca domestica
  efficacy (kill): 95%
